According to patent publication US7994140B2, “Classes of compounds that interact with GPCRs” (Alchemia Limited, priority 2002, dated 2011):

biological target: T1, SST5 (Homo sapiens, UniProt P35346); assay: GPCR radioligand binding (RLB) assay, somatostatin SST5, [125I]SST-14; details: 10 micromolar compound; recombinant human receptor membranes (HEK 293)
T1 construct: purchased Perkin Elmer BioSignal; host or cells: HEK 293
Protocol: Recombinant human receptors expressed in HEK 293 cells were used for all experiments. Receptor membrane preparations were purchased from Perkin Elmer BioSignal. The labelled ligand used in somatostatin GPCR RLB assays was [^125I]SST-14 and in melanocortin assays was [^125I]NDP-αMSH. All assays were done in a 96-well plate format using either glass fiber filter mats or filter plates. All reagents purchased were of the highest quality.
Specific assay buffer, incubation and washing conditions were optimized for each receptor however they all followed the same general format. The procedures for both filter mat and filter plate formats are based on the receptor manufacturers recommendations or those described extensively in the literature. The procedures are briefly outlined below.
In assays where filter mats are used we incubate receptor membranes, assay buffer and [^125I] labelled ligand in 96 well microplates. Add compounds to incubation mixture and continue incubation for optimized period. Presoak Filter mat GF/B in 0.5% PEI for ˜2 hr at 4° C. On completion of assay mixture incubation add additional 100 μL/well of assay buffer immediately prior to filtration. Filter the assay mixture onto the GF/B filter mat using a cell harvester. Dry the filter mats prior to sealing them into a scintillation counting bag with scintillant. Radioactivity in each well is detected by liquid scintillation counting.
In assays where filter plates are used Multiscreen glass fiber filter plates (Millipore, Cat No MAFCNOB10) are precoated with 0.5% PEI for ˜2 hr at 4° C. All wells are then washed with 200 µl/well assay buffer and filtered using the Multiscreen Separation System. Subsequently receptor membranes, assay buffer and labelled ligands are added to the wells and equilibrated. Compounds for testing are then added to the mixture and incubation is continued for an optimized time. Plates are then put into the Multiscreen Separation System and the assay mixture is filtered through the plate under vacuum. Each well is then washed several times with assay buffer. Plates are then dried prior to putting sealing tape onto the bottom of the plate. Scintillant is added to each well and radioactivity measured by liquid scintillation counting.
Raw data was analysed according to standard methods using either GraphPad Prism software or IDDBS ActivityBase software.

T1 sequence (P35346 whole entry): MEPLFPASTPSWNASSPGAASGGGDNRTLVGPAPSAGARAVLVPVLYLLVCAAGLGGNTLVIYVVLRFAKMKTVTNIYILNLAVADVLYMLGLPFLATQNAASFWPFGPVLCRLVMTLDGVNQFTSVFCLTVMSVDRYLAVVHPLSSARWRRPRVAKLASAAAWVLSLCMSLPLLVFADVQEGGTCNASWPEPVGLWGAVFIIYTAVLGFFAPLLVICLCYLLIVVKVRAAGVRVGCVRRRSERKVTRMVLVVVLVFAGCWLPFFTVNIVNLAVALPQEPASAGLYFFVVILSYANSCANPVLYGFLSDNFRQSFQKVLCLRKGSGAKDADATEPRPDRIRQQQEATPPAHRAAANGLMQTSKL

SMILES | SST5 inhibition at 10 micromolar
COC[C@H]1OC(OCc2ccc(Cl)cc2)[C@H](NC(=O)CCCNC(=N)N)[C@@H](OCc2ccccc2)[C@@H]1O (some centres unmarked) [Compound 47] | + (Indicates inhibition greater than . . . 50%)
COC[C@H]1OC(OCCc2ccccc2)[C@H](NC(=O)CCCN)[C@@H](OCc2ccc(-c3ccccc3)cc2)[C@@H]1O (some centres unmarked) [Compound 48] | + (Indicates inhibition greater than . . . 50%)
COC[C@H]1OC(OCCc2ccccc2)[C@H](NC(=O)CCCN)[C@@H](OCc2ccc3ccccc3c2)[C@@H]1O (some centres unmarked) [Compound 50] | + (Indicates inhibition greater than . . . 50%)
COC[C@H]1OC(OCCc2ccccc2)[C@H](NC(=O)CCCN)[C@@H](OCc2ccc(Cl)cc2)[C@@H]1O (some centres unmarked) [Compound 51] | + (Indicates inhibition greater than . . . 50%)
COC[C@H]1OC(OCCc2ccccc2)[C@H](NC(=O)CCCNC(=N)N)[C@@H](OCc2ccc(Cl)cc2)[C@@H]1O (some centres unmarked) [Compound 52] | + (Indicates inhibition greater than . . . 50%)
COC[C@H]1OC(OCc2ccccc2)[C@H](NC(=O)CCCN)[C@@H](OCc2ccc3ccccc3c2)[C@@H]1O (some centres unmarked) [Compound 54] | + (Indicates inhibition greater than . . . 50%)
COC[C@H]1OC(OCc2ccc(Cl)cc2)[C@H](NC(=O)CCCN)[C@@H](OCc2ccc(Cl)cc2)[C@@H]1O (some centres unmarked) [Compound 55] | + (Indicates inhibition greater than . . . 50%)
CO[C@H]1[C@H](O)[C@@H](COCc2ccc3ccccc3c2)OC(OCc2ccc(-c3ccccc3)cc2)[C@@H]1NC(=O)CCNC(=N)N (some centres unmarked) [Compound 60] | + (Indicates inhibition greater than . . . 50%)
CO[C@H]1[C@H](O)[C@@H](COCc2ccccc2)OC(OCc2ccc(Cl)cc2)[C@@H]1NC(=O)CCCN (some centres unmarked) [Compound 91] | + (Indicates inhibition greater than . . . 50%)
CO[C@H]1[C@H](O)[C@@H](COCc2cccc(O)c2)OC(OCc2ccc3ccccc3c2)[C@@H]1NC(=O)CCCN (some centres unmarked) [Compound 109] | + (Indicates inhibition greater than . . . 50%)
CO[C@H]1[C@H](O)[C@@H](COCc2cccc(O)c2)OC(OCc2ccc(Cl)cc2)[C@@H]1NC(=O)CCCN (some centres unmarked) [Compound 111] | + (Indicates inhibition greater than . . . 50%)
CO[C@H]1[C@H](O)[C@@H](COCc2ccc(Cl)cc2)OC(OCc2cccc(O)c2)[C@@H]1NC(=O)CCCN (some centres unmarked) [Compound 118] | + (Indicates inhibition greater than . . . 50%)
CSC1OC(COCc2ccccc2)C(O)C(OCc2ccccc2)C1NC(=O)CN (centres unmarked) [Compound 119] | + (Indicates inhibition greater than . . . 50%)
CSC1OC(COCc2ccccc2)C(O)C(OCc2ccccc2)C1NC(=O)CCCN (centres unmarked) [Compound 123] | + (Indicates inhibition greater than . . . 50%)
CSC1OC(COCc2ccc(Cl)cc2)C(O)C(OCc2ccccc2)C1NC(=O)CN (centres unmarked) [Compound 125] | + (Indicates inhibition greater than . . . 50%)
CSC1OC(COCc2ccc(Cl)cc2)C(O)C(OCc2ccccc2)C1NC(=O)CCN (centres unmarked) [Compound 127] | + (Indicates inhibition greater than . . . 50%)
CSC1OC(COCc2ccc(-c3ccccc3)cc2)C(O)C(OCc2ccccc2)C1NC(=O)CN (centres unmarked) [Compound 131] | + (Indicates inhibition greater than . . . 50%)
CSC1OC(COCc2ccccc2)C(O)C(OCc2ccc(Cl)cc2)C1NC(=O)CN (centres unmarked) [Compound 143] | + (Indicates inhibition greater than . . . 50%)
CSC1OC(COCc2ccccc2)C(O)C(OCc2ccc(Cl)cc2)C1NC(=O)CCCN (centres unmarked) [Compound 147] | + (Indicates inhibition greater than . . . 50%)
CSC1OC(COCc2ccc(Cl)cc2)C(O)C(OCc2ccc(Cl)cc2)C1NC(=O)CN (centres unmarked) [Compound 149] | + (Indicates inhibition greater than . . . 50%)
CSC1OC(COCc2ccc(Cl)cc2)C(O)C(OCc2ccc(Cl)cc2)C1NC(=O)CCCN (centres unmarked) [Compound 153] | + (Indicates inhibition greater than . . . 50%)
CSC1OC(COCc2ccc(-c3ccccc3)cc2)C(O)C(OCc2ccc(-c3ccccc3)cc2)C1NC(=O)CCCNC(=N)N (centres unmarked) [Compound 184] | + (Indicates inhibition greater than . . . 50%)
CSC1OC(COCc2ccccc2)C(O)C(OCc2ccc3ccccc3c2)C1NC(=O)CCN (centres unmarked) [Compound 193] | + (Indicates inhibition greater than . . . 50%)
CSC1OC(COC(=O)Cc2c[nH]c3ccccc23)C(O)C(OCc2cccc(N)c2)C1NCc1ccccc1 (centres unmarked) [Compound 310] | + (Indicates inhibition greater than . . . 50%)
CSC1OC(COC(=O)c2ccccc2)C(O)C(OCc2cccc(N)c2)C1NCc1ccc(Cl)cc1 (centres unmarked) [Compound 312] | + (Indicates inhibition greater than . . . 50%)
CSC1OC(COC(=O)Cc2c[nH]c3ccccc23)C(O)C(OCc2cccc(N)c2)C1NCc1ccc(Cl)cc1 (centres unmarked) [Compound 315] | + (Indicates inhibition greater than . . . 50%)
CSC1O[C@H](COCc2ccccc2)[C@@H](O)[C@H](OCc2cccc(N)c2)[C@H]1NC(=O)c1ccccc1 (some centres unmarked) [Compound 316] | + (Indicates inhibition greater than . . . 50%)
CSC1O[C@H](COCc2ccccc2)[C@@H](O)[C@H](OCc2cccc(N)c2)[C@H]1NC(=O)Cc1c[nH]c2ccccc12 (some centres unmarked) [Compound 319] | + (Indicates inhibition greater than . . . 50%)
CSC1O[C@H](COCc2ccc(Cl)cc2)[C@@H](O)[C@H](OCc2cccc(N)c2)[C@H]1NC(=O)c1ccccc1 (some centres unmarked) [Compound 321] | + (Indicates inhibition greater than . . . 50%)

same assay, conditions: 10 micromolar; Example Library 4

SMILES | SSTS inhibition at 10 micromolar
COCC1OC(OCc2ccccc2)C(NC(=O)CN)C(OCc2ccccc2)C1O (centres unmarked) [Compound 213] | + (Indicates inhibition greater than . . . 50%)
COCC1OC(OCc2ccccc2)C(NC(=O)CCN)C(OCc2ccccc2)C1O (centres unmarked) [Compound 215] | + (Indicates inhibition greater than . . . 50%)
COCC1OC(OCc2ccccc2)C(NC(=O)CCCN)C(OCc2ccccc2)C1O (centres unmarked) [Compound 217] | + (Indicates inhibition greater than . . . 50%)
COCC1OC(OCc2ccccc2)C(NC(=O)CN)C(OCc2ccc3ccccc3c2)C1O (centres unmarked) [Compound 231] | + (Indicates inhibition greater than . . . 50%)
COCC1OC(OCc2ccc(Cl)cc2)C(NC(=O)CCN)C(OCc2ccccc2)C1O (centres unmarked) [Compound 238] | + (Indicates inhibition greater than . . . 50%)
COCC1OC(OCc2ccc(Cl)cc2)C(NC(=O)CCCN)C(OCc2ccccc2)C1O (centres unmarked) [Compound 240] | + (Indicates inhibition greater than . . . 50%)
COCC1OC(OCCc2ccccc2)C(NC(=O)CN)C(OCc2ccccc2)C1O (centres unmarked) [Compound 260] | + (Indicates inhibition greater than . . . 50%)
COCC1OC(OCCc2ccccc2)C(NC(=O)CCN)C(OCc2ccccc2)C1O (centres unmarked) [Compound 262] | + (Indicates inhibition greater than . . . 50%)
COCC1OC(OCCc2ccccc2)C(NC(=O)CCCN)C(OCc2ccccc2)C1O (centres unmarked) [Compound 264] | + (Indicates inhibition greater than . . . 50%)
COCC1OC(OCCc2ccccc2)C(NC(=O)CN)C(OCc2ccc(Cl)cc2)C1O (centres unmarked) [Compound 266] | + (Indicates inhibition greater than . . . 50%)
COCC1OC(OCc2ccc3ccccc3c2)C(NC(=O)CN)C(OCc2ccccc2)C1O (centres unmarked) [Compound 284] | + (Indicates inhibition greater than . . . 50%)
COCC1OC(OCc2ccc3ccccc3c2)C(NC(=O)CCCN)C(OCc2ccccc2)C1O (centres unmarked) [Compound 288] | + (Indicates inhibition greater than . . . 50%)
COCC1OC(OCc2ccc3ccccc3c2)C(NC(=O)CCCNC(=N)N)C(OCc2ccccc2)C1O (centres unmarked) [Compound 289] | + (Indicates inhibition greater than . . . 50%)
COCC1OC(OCc2ccc3ccccc3c2)C(NC(=O)CN)C(OCc2ccc(Cl)cc2)C1O (centres unmarked) [Compound 290] | + (Indicates inhibition greater than . . . 50%)
COCC1OC(OCc2ccc3ccccc3c2)C(NC(=O)CCN)C(OCc2ccc(Cl)cc2)C1O (centres unmarked) [Compound 292] | + (Indicates inhibition greater than . . . 50%)
COCC1OC(OCc2ccc3ccccc3c2)C(NC(=O)CN)C(OCc2ccc(-c3ccccc3)cc2)C1O (centres unmarked) [Compound 296] | + (Indicates inhibition greater than . . . 50%)
COCC1OC(OCc2ccc3ccccc3c2)C(NC(=O)CCN)C(OCc2ccc3ccccc3c2)C1O (centres unmarked) [Compound 304] | + (Indicates inhibition greater than . . . 50%)
COCC1OC(OCc2ccc3ccccc3c2)C(NC(=O)CCCN)C(OCc2ccc3ccccc3c2)C1O (centres unmarked) [Compound 306] | + (Indicates inhibition greater than . . . 50%)
